Source: ChEMBL document CHEMBL4425099, “Use of Osmotic Pumps to Establish the Pharmacokinetic-Pharmacodynamic Relationship and Define Desirable Human Performance Characteristics for Aggrecanase Inhibitors” (J Med Chem, 2016)
Values after ≈ are worked out from the molar mass of the structure shown. Active and inactive are the calls of the source. The calls are words filed in the database; no cut-off is given here.

Assays:
Interstitial collagenase = biological target: T1, Interstitial collagenase (Homo sapiens, UniProt P03956); assay: Inhibition of human MMP1 using Mca-PQGL-(3-[2,4-dinitrophenyl]-L-2,3-diaminopropionyl)-AR-OH as substrate measured after 2 to 4 hrs by fluorescence analysis
T1 sequence (P03956 whole entry): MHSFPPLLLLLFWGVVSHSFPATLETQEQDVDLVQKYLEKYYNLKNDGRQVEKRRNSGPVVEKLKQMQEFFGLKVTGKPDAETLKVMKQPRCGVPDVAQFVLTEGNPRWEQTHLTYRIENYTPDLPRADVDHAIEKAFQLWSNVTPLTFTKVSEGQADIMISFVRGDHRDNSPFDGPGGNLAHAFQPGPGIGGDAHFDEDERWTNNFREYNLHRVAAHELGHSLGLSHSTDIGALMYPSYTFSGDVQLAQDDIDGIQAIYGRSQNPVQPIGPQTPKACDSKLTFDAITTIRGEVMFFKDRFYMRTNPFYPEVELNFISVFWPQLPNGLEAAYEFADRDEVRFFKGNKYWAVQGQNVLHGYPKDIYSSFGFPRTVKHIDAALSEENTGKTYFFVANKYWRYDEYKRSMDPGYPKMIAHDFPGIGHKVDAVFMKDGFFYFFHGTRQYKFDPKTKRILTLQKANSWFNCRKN

[1] = biological target: Disintegrin and metalloproteinase domain-containing protein 17 (Homo sapiens, UniProt P78536); assay: Inhibition of human TACE using Mca-PQGL-(3-[2,4-dinitrophenyl]-L-2,3-diaminopropionyl)-AR-OH as substrate measured after 2 to 4 hrs by fluorescence analysis
Rattus norvegicus [2] = assay: Reduction in ADAMTS-4/ADAMTS-5 mediated aggrecan cleavage products in Lewis rat model of MIA assessed as aggrecanase-cleaved fragments at 10 mg/kg, po bid administered post 3 days MIA induction measured after 4 hrs of last dosage on day 7 by NITEGE sandwich ELISA; type: functional
[3] = Ratio of plasma concentration in Lewis rat model of MIA at 30 mg/kg, po bid administered post 3 days MIA induction measured after 4 hrs of last dosage on day 7 to IC50 for human ADAMTS5 in presence of Lewis rat plasma; type: ADME, organism-based; conditions: in vivo
[4] = Plasma concentration in Lewis rat model of MIA at 1.44 mg/mL, sc administered through infusion pump post 3 days MIA induction; type: ADME, organism-based
[5] = Plasma concentration in Lewis rat model of MIA at 4.3 mg/mL, sc administered through infusion pump post 3 days MIA induction; type: ADME, organism-based
[6] = Plasma concentration in Lewis rat model of MIA at 10 mg/mL, sc administered through infusion pump post 3 days MIA induction; type: ADME, organism-based
[7] = Ratio of plasma concentration in Lewis rat model of MIA at 1.44 mg/mL, sc administered through infusion pump post 3 days MIA induction to IC50 for human ADAMTS5 in presence of rat plasma; type: ADME, organism-based; conditions: in vivo, 72 h
[8] = Fraction unbound in rat plasma; type: ADME, cell-free
[9] = Dissociation constant, basic pKa of the compound; type: physicochemical
[10] = Solubility of the compound at pH 2.2; type: physicochemical; conditions: buffer
[11] = Clearance in rat at 1 mg/kg, iv or 10 mg/kg, po; type: ADME, organism-based; conditions: in vivo
[12] = Volume of distribution at steady state in rat at 1 mg/kg, iv or 10 mg/kg, po; type: ADME, organism-based; conditions: in vivo, read-out: Vdss
[13] = Half life in rat at 1 mg/kg, iv or 10 mg/kg, po; type: ADME, organism-based; conditions: in vivo
[14] = Clearance in dog at 3 mg/kg, iv or 5 mg/kg, po; type: ADME, organism-based, Canis lupus familiaris; conditions: in vivo
[15] = Volume of distribution at steady state in dog at 3 mg/kg, iv or 5 mg/kg, po; type: ADME, organism-based, Canis lupus familiaris; conditions: in vivo, read-out: Vdss
[16] = Half life in dog at 3 mg/kg, iv or 5 mg/kg, po; type: ADME, organism-based, Canis lupus familiaris; conditions: in vivo
[17] = Oral bioavailability in dog at 5 mg/kg; type: ADME, organism-based, Canis lupus familiaris; conditions: in vivo
[18] = Clearance in cynomolgus monkey at 1 mg/kg, iv or 5 mg/kg, po; type: ADME, organism-based, Macaca fascicularis; conditions: in vivo
[19] = Volume of distribution at steady state in cynomolgus monkey at 1 mg/kg, iv or 5 mg/kg, po; type: ADME, organism-based, Macaca fascicularis; conditions: in vivo, read-out: Vdss
[20] = Half life in cynomolgus monkey at 1 mg/kg, iv or 5 mg/kg, po; type: ADME, organism-based, Macaca fascicularis; conditions: in vivo
[21] = Oral bioavailability in cynomolgus monkey at 5 mg/kg; type: ADME, organism-based, Macaca fascicularis; conditions: in vivo
[22] = Lipophilicity, log P of the compound; type: physicochemical; conditions: octanol/water
[23] = Dissociation constant, acidic pKa of the compound; type: physicochemical
[24] = Fraction unbound in dog plasma; type: ADME, cell-free, Canis lupus familiaris
[25] = Fraction unbound in cynomolgus monkey plasma; type: ADME, cell-free, Macaca fascicularis
[26] = Fraction unbound in human plasma; type: ADME, cell-free
[27] = Tmax in Lewis rat plasma at 30 mg/kg, po; type: ADME, organism-based
[28] = Fraction unbound in human liver microsomes; type: ADME, Microsome
[29] = Plasma concentration in Lewis rat model of MIA at […], po administered through infusion pump post 3 days MIA induction; type: ADME, organism-based
[30] = Plasma concentration in Lewis rat model of MIA at 6 mg/mL, […] post 3 days MIA induction; type: ADME, organism-based
[31] = Ratio of plasma concentration in Lewis rat model of MIA at […], […] administered through infusion pump post 3 days MIA induction to IC50 for human ADAMTS5 in presence of rat plasma; type: ADME, organism-based; conditions: in vivo, 72 h
[32] = Ratio of plasma concentration in Lewis rat model of MIA at 6 mg/mL, […] post 3 days MIA induction to IC50 for human ADAMTS5 in presence of rat plasma; type: ADME, organism-based; conditions: in vivo, 72 h
Rattus norvegicus [33] = assay: Reduction in ADAMTS-4/ADAMTS-5 mediated aggrecan cleavage products in Lewis rat model of MIA assessed as aggrecanase-cleaved fragments at […] administered through infusion pump post 3 days MIA induction measured after 4 hrs of last dosage on day 7 by NITEGE sandwich ELISA; type: functional
Rattus norvegicus [34] = assay: Reduction in ADAMTS-4/ADAMTS-5 mediated aggrecan cleavage products in Lewis rat model of MIA assessed as aggrecanase-cleaved fragments at 6 mg/mL administered through infusion pump post 3 days MIA induction measured after 4 hrs of last dosage on day 7 by NITEGE sandwich ELISA; type: functional
Rattus norvegicus [35] = assay: Reduction in ADAMTS-4/ADAMTS-5 mediated aggrecan cleavage products in Lewis rat model of MIA assessed as aggrecanase-cleaved fragments at 60 mg/mL administered through infusion pump post 3 days MIA induction measured after 4 hrs of last dosage on day 7 by NITEGE sandwich ELISA; type: functional
Rattus norvegicus [36] = assay: Reduction in meniscal tear-induced osteoarthritis total joint score in Lewis rat surgical model at 30 and 100 mg/kg, po bid relative to vehicle control; type: functional, organism-based
[37] = Solubility of the compound at pH 7.7; type: physicochemical; conditions: buffer
Rattus norvegicus [38] = assay: Reduction in ADAMTS-4/ADAMTS-5 mediated aggrecan cleavage products in Lewis rat model of MIA assessed as aggrecanase-cleaved fragments at 30 mg/kg, po qd administered post 3 days MIA induction measured after 4 hrs of last dosage on day 7 by NITEGE sandwich ELISA; type: functional

Chain of Disintegrin and metalloproteinase domain-containing protein 17 (P78536 whole entry, the tested form may be a part): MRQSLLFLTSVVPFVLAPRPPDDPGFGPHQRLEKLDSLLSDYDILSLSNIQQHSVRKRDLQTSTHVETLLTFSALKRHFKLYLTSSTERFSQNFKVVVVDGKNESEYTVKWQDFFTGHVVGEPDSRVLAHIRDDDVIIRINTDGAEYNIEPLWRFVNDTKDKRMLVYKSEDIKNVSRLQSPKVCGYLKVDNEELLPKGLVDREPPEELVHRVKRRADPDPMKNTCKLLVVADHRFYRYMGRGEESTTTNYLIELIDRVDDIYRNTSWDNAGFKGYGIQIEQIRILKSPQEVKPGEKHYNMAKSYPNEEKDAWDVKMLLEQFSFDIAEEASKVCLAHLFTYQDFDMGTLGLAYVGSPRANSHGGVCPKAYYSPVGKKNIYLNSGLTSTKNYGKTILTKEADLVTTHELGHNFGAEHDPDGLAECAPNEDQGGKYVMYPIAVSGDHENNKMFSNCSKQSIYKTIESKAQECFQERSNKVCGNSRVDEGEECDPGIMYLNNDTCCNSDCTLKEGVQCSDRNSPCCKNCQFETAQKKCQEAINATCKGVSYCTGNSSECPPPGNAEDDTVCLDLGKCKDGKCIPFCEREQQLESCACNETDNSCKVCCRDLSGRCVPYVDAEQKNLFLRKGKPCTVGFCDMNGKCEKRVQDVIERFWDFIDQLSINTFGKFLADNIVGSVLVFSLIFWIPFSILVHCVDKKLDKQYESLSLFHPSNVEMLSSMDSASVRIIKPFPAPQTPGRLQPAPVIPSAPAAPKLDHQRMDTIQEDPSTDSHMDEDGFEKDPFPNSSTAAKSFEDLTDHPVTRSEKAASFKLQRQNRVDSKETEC

Work on `CCn1ccnc1[C@]1(CNC(=O)c2cc3cc(C(F)(F)F)ccc3o2)NC(=O)NC1=O` yielded an IC50 (Interstitial collagenase) of 100 µM, an IC50 [1] of 10 µM and an inhibition in vivo at 10 mg/kg (Rattus norvegicus [2]) of 19%. It also gave a Ratio [3] of 54.

For `Cn1ccnc1[C@]1(CNC(=O)c2cc3cc(C(F)(F)F)ccc3o2)NC(=O)NC1=O`, the IC50 (Interstitial collagenase) was 100 µM, the inhibition in vivo at 10 mg/kg (Rattus norvegicus [2]) was 32% and the Ratio [3] was 46. For the same compound, the concentration at 72 h [4] was 130 nM, the concentration at 72 h [5] was 360 nM and the concentration at 72 h [6] was 1100 nM. For the same compound, the Ratio [7] was 3.7, the fraction unbound [8] was 0.143 and the pKa [9] was 3.67. For the same compound, the solubility [10] was 1750 µg/mL (≈ 4150 µM), the clearance [11] was 4.8 mL/min/kg and the Vd [12] was 0.31 L/kg. For the same compound, the half-life [13] was 1.9 h, the clearance [14] was 4.8 mL/min/kg and the Vd [15] was 0.52 L/kg. For the same compound, the half-life [16] was 5.7 h, the bioavailability [17] was 93% and the clearance [18] was 7.3 mL/min/kg. The Vd [19] was 0.59 L/kg, the half-life [20] was 6.5 h and the bioavailability [21] was 76%. It also gave a logP [22] of 1.63, a pKa [23] of 7.35 and a fraction unbound [24] of 0.196. It also gave a fraction unbound [25] of 0.248, a fraction unbound [26] of 0.245 and a Tmax [27] of 1 h. For the same compound, the fraction unbound [28] was 0.719.

Work on `Cc1cnc([C@]2(CNC(=O)c3cc4cc(Cl)ccc4o3)NC(=O)NC2=O)n1C` yielded an IC50 [1] of 8.9 µM.

For `Cc1cnc([C@]2(CNC(=O)c3cc4cc(C(F)(F)F)ccc4o3)NC(=O)NC2=O)n1C`, the IC50 (Interstitial collagenase) was 100 µM, the IC50 [1] was 10 µM and the inhibition in vivo at 10 mg/kg (Rattus norvegicus [2]) was 17%. For the same compound, the Ratio [3] was 76.

Work on `CCn1ccnc1[C@]1(CNC(=O)c2cc3cc(Cl)ccc3o2)NC(=O)NC1=O` yielded an IC50 [1] of 10 µM.

`O=C1NC(=O)[C@](CNC(=O)c2cc3cc(C(F)(F)F)ccc3o2)(C2CC2)N1` showed an IC50 (Interstitial collagenase) of 50 µM, a fraction unbound [8] of 0.206 and a concentration at 72 h [29] of 200 nM. It also gave a concentration at 72 h [30] of 630 nM, a Ratio [31] of 3.2 and a Ratio [32] of 10. For the same compound, the “inhibition (INH)” value (Rattus norvegicus [33]) was 21%, the “inhibition (INH)” value (Rattus norvegicus [34]) was 44% and the “inhibition (INH)” value (Rattus norvegicus [35]) was 59%. For the same compound, the clearance [11] was 13 mL/min/kg, the Vd [12] was 3.6 L/kg and the half-life [13] was 3.8 h. For the same compound, the clearance [14] was 1.3 mL/min/kg, the Vd [15] was 0.92 L/kg and the half-life [16] was 9.1 h. For the same compound, the bioavailability [17] was 74%, the clearance [18] was 1 mL/min/kg and the Vd [19] was 0.8 L/kg. The half-life [20] was 12 h, the bioavailability [21] was 100% and the inhibition (Rattus norvegicus [36]) was “Active”. It also gave a logP [22] of 2.29, a pKa [23] of 8.52 and a fraction unbound [24] of 0.215. The fraction unbound [25] was 0.229, the fraction unbound [26] was 0.255 and the solubility [37] was 16 µg/mL (≈ 42 µM). It also gave an inhibition in vivo at 30 mg/kg (Rattus norvegicus [38]) of 52% and a fraction unbound [28] of 0.557.

In the case of `Cn1ccnc1[C@]1(CNC(=O)c2cc3cc(Cl)ccc3o2)NC(=O)NC1=O`, the IC50 (Interstitial collagenase) is reported as 19 µM and the IC50 [1] is reported as 10 µM.
